Target: Serine/threonine-protein kinase B-raf (Homo sapiens, UniProt P15056, V600E)
Assay: Inhibition of N-terminal his-tagged BRAF V600E mutant (448 to 723 residues) (unknown origin) expressed in Escherichia coli BL21(DE3) cells assessed as phosphorylation of biotinylated-MEK by AlphaScreen assay

Serine/threonine-protein kinase B-raf, sequence (P15056 2-766 V600E limits assumed): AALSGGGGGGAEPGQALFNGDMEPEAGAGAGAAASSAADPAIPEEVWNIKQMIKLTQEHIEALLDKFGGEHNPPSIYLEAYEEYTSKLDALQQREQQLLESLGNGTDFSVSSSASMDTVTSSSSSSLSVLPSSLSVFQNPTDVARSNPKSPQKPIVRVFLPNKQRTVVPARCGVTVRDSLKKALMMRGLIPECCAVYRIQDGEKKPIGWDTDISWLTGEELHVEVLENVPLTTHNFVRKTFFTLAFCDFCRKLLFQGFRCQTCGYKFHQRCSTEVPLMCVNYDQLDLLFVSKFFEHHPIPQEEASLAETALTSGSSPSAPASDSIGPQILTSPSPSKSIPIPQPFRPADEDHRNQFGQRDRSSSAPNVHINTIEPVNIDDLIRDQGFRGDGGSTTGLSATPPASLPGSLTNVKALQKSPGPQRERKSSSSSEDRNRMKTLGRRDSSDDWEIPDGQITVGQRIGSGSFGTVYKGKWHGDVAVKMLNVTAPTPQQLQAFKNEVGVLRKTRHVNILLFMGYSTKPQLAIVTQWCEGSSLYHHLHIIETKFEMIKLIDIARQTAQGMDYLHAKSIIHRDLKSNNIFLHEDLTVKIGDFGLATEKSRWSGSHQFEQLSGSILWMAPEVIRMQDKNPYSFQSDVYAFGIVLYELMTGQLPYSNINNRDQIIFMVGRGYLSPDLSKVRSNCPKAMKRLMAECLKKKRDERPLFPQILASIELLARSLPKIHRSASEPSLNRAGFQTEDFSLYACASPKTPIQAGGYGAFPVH

IC50: > 100 µM
Compound: c1ccc(Nc2c[nH]c3ncccc23)cc1

Source: ChEMBL document CHEMBL3808327, “Natural Products as Sources of New Drugs from 1981 to 2014” (J Nat Prod, 2016)
